Key:
[1] = system: membrane-associated phospholipase B (PLB activity); assay: Radiometric assay, membrane-associated PLB activity; assay type: biochemical, Cryptococcus neoformans H99; conditions: pH 4
Description: Fungal isolates and media. […] Isolate H99 was kindly supplied by Dr. Gary Cox (Duke University Medical Center, Durham, N.C., USA), and subcultured onto Sabouraud dextrose agar (SDA) at 30° C.
Cellular disruption to prepare membrane and cytosolic fractions. The cell pellet from the preparation of the supernatant, above, was also frozen at −70° C. After washing twice with imidazole buffer, it was disrupted in the presence of a protease inhibitor cocktail (P 8215 for fungal and yeast cells; 4-(2-aminoethyl)benzenesulfonyl fluoride hydrochloride, 100 mM, 1,10-phenanthroline, 500 mM, pepstatin A, 2.2 mM, E-64, 1.4 mM; Sigma) in a MiniBeadbeater-8 Cell Disrupter (MBB-8; Daintree Scientific, Tasmania, Australia) for three cycles of 1 min, alternating with a 1 min cooling period on ice. The homogenate was centrifuged at 14,000 g for 15 min to obtain the membrane (pellet) and the cytosolic (supernatant) fractions.
Radiometric assay method for phospholipases. Enzyme activities were measured as described previously in a final volume of 125 μL at 37° C. For the determination of secreted PLB activity, carrier dipalmitoyl phosphatidylcholine (DPPC, final concentration 800 μM) and 1,2-di[1-^14C] palmitoyl phosphatidylcholine (20,000 dpm) were dried under nitrogen and suspended in 125 mM imidazole acetate buffer (assay buffer, pH 4.0) by sonication using a Branson 450 sonifier. The reaction time was 22 min, using 1 μg total protein and PLB activity was determined by the rate of decrease of the radiolabelled PC substrate, with appearance of the label in free fatty acid. This assay also simultaneously allows for the determination of phospholipase A, C and D activities. These activities were measured by the appearance of radiolabel from PC in Lyso PC, diacylglycerol and phosphatidic acid, respectively.
All reactions were terminated by adding 0.5 mL of chloroform:methanol (2:1 v/v). The reaction products were extracted by the method as disclosed in Bligh, E. C. and W. J. Dyer. 1959 ‘A rapid method of total lipid extraction and purification.’ Can. J. Biochem. Physiol. 37:911-917, separated by TLC and quantified as previously described. In the case of PLC activity, the TLC plates were developed in petroleum ether (BP 60-80° C.): diethyl ether: acetic acid (90:15:1, v/v/v) instead of chloroform:methanol:water (65:25:4, v/v/v).
All experiments were carried out in duplicate or triplicate. The effects of pH on the various phospholipase activities were measured using 50 mM final concentration of imidazole-acetate buffer (pH range 3-5), MES buffer (pH range 6-8) and glycine buffer (pH 9-10). Controls for non-enzymic breakdown of substrates were included at all pH values. Cations, Triton X-100 and metal chelators were made up as stock solutions in water and diluted to the final concentration in the appropriate assay buffer.
Preparation of inhibitors and use in assays. The following compounds were tested (for structures, see FIG. 2): compound 1, 1,12-bis(tributylphosphonium)dodecane dibromide (Fluka AG, Buchs, Switzerland); compound 2, 1,10-bis(tributylammonium)-decane dibromide; compound 3, 1,12-bis(tributylammonium)do-decane dibromide (both synthesised in-house); compound 4, 1,10-bis(trimethylammonium)decane dibromide [“decamethonium”] (Sigma, St. Louis Mo., USA). All compounds were prepared as stock solutions of 700 μM in assay buffer containing 5 mM EDTA, which was then diluted serially with buffer to obtain solutions of 70, 7, 0.7 and 0.07 μM. In each assay, 45 μL of these solutions was used, and the final volume of 125 μL was made up of substrate, enzyme and buffer. The radiometric assay was carried out as above.

[2] = system: two strains of C. neoformans and one strain of Candida albicans; assay: Standardised serial dilution sensitivity test, results stated over all strains; assay type: cell-based
Description: Antifungal susceptibility testing. The antifingal activity of the compounds was measured by a standard microdilution method. […] The fungal strains tested included Cryptococcus neoformans H99, Cryptococcus neoformans ATCC 90112 and Candida albicans ATCC 10231. All tests were performed in duplicate.

| Structure (SMILES) | % Inhibition PLB, Membrane-bound Enzyme ([1]; 2.5 μM) [%] | % Inhibition PLB, Membrane-bound Enzyme ([1]; 25 μM) [%] | % Inhibition PLB, Membrane-bound Enzyme ([1]; 250 μM) [%] | antifungal / fungicidal activity, in words [2] |
| --- | --- | --- | --- | --- |
| CCCC[P+](CCCC)(CCCC)CCCCCCCCCCCC[P+](CCCC)(CCCC)CCCC [Compound 1, 1,12-bis(tributylphosphonium)dodecane dibromide] | 0 | 0 | 0 | – |
| CCCC[N+](CCCC)(CCCC)CCCCCCCCCCCC[N+](CCCC)(CCCC)CCCC [Compound 3, 1,12-bis(tributylammonium)do-decane dibromide] | – | – | – | fungicidal activity |

Source: patent US7947854B2, “Bis-cationic compounds and use thereof” (The University of Sydney, priority 2003, dated 2011)
